According to patent US3996359A, “Novel stereoisomeric component A of stereoisomeric mixtures of 2'-unsymmetrical 16,17-methylenedioxy steroid 21-acylates, compositions thereof, and method of treating therewith” (AB Bofors, priority 1972, dated 1976):

Tested on: rats subjected to adrenalectomy (granuloma around implanted cotton wads)
Assay: granulom test (cotton-pellet test) on rats subjected to adrenalectomy: granuloma growth, thymus weight, body weight increase
Type: in vivo, rat (Sprague-Dawley)
Conditions: for Dose required to obtain 50% inhibition of Granuloma growth: Table 3, adrenalectomized young male Sprague-Dawley rats, topical in implanted cotton wads, day 8; for Dose required to obtain 25% inhibition of Body weight Increase / Dose required to obtain 50% inhibition of Thymus weight: rat, in vivo, 11520 min
From the text: In the following this active stereoisomeric component will always be designated B. As regards the steroids referred to in connection with the present invention the stereoisomeric mixture as well as the individual stereoisomeric components A and B have been investigated with regard to antiinflammatory activity in granulom test on rats subjected to adrenalectomy. The experimental procedure used corresponds largely to that described by G. Engelhardt: Arzneimittel-Forschung, 13, p. 588, 1963. According to this procedure the test substances are applied topically in the implanted cottom wads. It is thereby possible to study the local antiinflammatory effect in granulomas and also systemic effects in the form of retrogression of thymus and inhibition of bodyweight growth.
Young male rats of the Sprague-Dawley strain weighing about 110-130 g were subjected to adrenalectomy under ether narcosis. Two sterilized cottom wads of each about 6 mg were implanted simultaneously subcutaneously on the lateral side of the spinal. After awakening the animals were stored 5 per cage and were supplied with normal food and 1% sodium chloride solution as drinking water. On the eighth test day the animals were sacrificed by ether narcosis. The granuloma formed around the cotton wads were carefully recovered and thymus and body weights were measured. The two granuloma from each animal were dried over night at 80° C and weighed. After subtraction of the initial weight of the cotton wads the weight increase was used as a measure of the granulom growth.
The test substances were used dissolved in ethyl acetate. Under aseptic conditions 0.05 ml of said solutions were injected into each of the cotton wads, whereafter the solvent was allowed to evaporate in the desiccator. Normally 3 concentrations of each test substance with the standard doses 3.3, 30 and 270 γ/animal were investigated. Each test group normally comprised 10 rats. The cotton wads of the control group were injected with only ethyl acetate, but were in other respects treated in the same way. When considering the effects of the test substances the average values of granulom growth, thymus weight and body weight increase day 0-8 were measured in each group in absolute figures and in % of the corresponding figure of the control group. Dose-response curves were drafted and used for estimating the doses giving 50 % reduction of granulom growth and of thymus weight and 25 % decrease of body weight increase.
The following Table 4 discloses the results of the cotton-pellet test hereinbefore described, giving in addition figures for the therapeutic ratios, that is, the ratios of the ED50 for thymus weight inhibition divided by the ED50 for granuloma formation inhibition, and the ED25 for body weight increase inhibition over the ED50 for granuloma formation inhibition. As will be recognized, the higher the number for the therapeutic ratio, the more favorable the therapeutic ratio. […] As will be noted for the table, the therapeutic ratio for thymus over granuloma for the Component A esters is 4.2, 7.1, 4.5, 2.6, 2.2, 1.7, 2.5 and 1.7 times as good as it is for the corresponding Component B ester isomer, whereas the therapeutic ratio for the Component A ester isomer as far as body weight is granuloma 2.7, 3.3, 9.8, 6.4, 2.3, 2.8, 3.3 and 2.8 times as favorable as for the corresponding Component B ester isomer.

Structure (SMILES): CCC1OC2CC3C4CCC5=CC(=O)C=CC5(C)C4(F)C(O)CC3(C)C2(C(=O)CO)O1 (mixture of isomers) [2 A+B]
- Dose required to obtain 50% inhibition of Granuloma growth: 35 γ/animal
- Dose required to obtain 25% inhibition of Body weight Increase: 140 γ/animal
- Dose required to obtain 50% inhibition of Thymus weight: 100 γ/animal

Structure (SMILES): CCCC1OC2CC3C4CCC5=CC(=O)C=CC5(C)C4(F)C(O)CC3(C)C2(C(=O)CO)O1 (mixture of isomers) [3 A+B]
- Dose required to obtain 50% inhibition of Granuloma growth: 10 γ/animal
- Dose required to obtain 25% inhibition of Body weight Increase: > 30 γ/animal
- Dose required to obtain 50% inhibition of Thymus weight: > 30 γ/animal

Structure (SMILES): CCCCC1OC2CC3C4CCC5=CC(=O)C=CC5(C)C4(F)C(O)CC3(C)C2(C(=O)CO)O1 (mixture of isomers) [4 A+B]
- Dose required to obtain 50% inhibition of Granuloma growth: < 3 γ/animal
- Dose required to obtain 25% inhibition of Body weight Increase: 170 γ/animal
- Dose required to obtain 50% inhibition of Thymus weight: 70 γ/animal

Structure (SMILES): CCCCCC1OC2CC3C4CCC5=CC(=O)C=CC5(C)C4(F)C(O)CC3(C)C2(C(=O)CO)O1 (mixture of isomers) [5 A+B]
- Dose required to obtain 50% inhibition of Granuloma growth: 17 γ/animal
- Dose required to obtain 25% inhibition of Body weight Increase: > 270 γ/animal
- Dose required to obtain 50% inhibition of Thymus weight: 130 γ/animal

Structure (SMILES): CCCC1OC2CC3C4CC(F)C5=CC(=O)C=CC5(C)C4(F)C(O)CC3(C)C2(C(=O)CO)O1 (mixture of isomers) [8 A+B]
- Dose required to obtain 50% inhibition of Granuloma growth: 5 γ/animal
- Dose required to obtain 25% inhibition of Body weight Increase: 50 γ/animal
- Dose required to obtain 50% inhibition of Thymus weight: 10 γ/animal

Structure (SMILES): CCCC1OC2CC3C4CCC5=CC(=O)C=CC5(C)C4(F)C(O)CC3(C)C2(C(=O)COC(=O)c2cc3ccccc3o2)O1 (mixture of isomers) [20 A+B]
- Dose required to obtain 50% inhibition of Granuloma growth: < 3 γ/animal
- Dose required to obtain 25% inhibition of Body weight Increase: 20 γ/animal
- Dose required to obtain 50% inhibition of Thymus weight: 25 γ/animal

Structure (SMILES): CCCC1OC2CC3C4CCC5=CC(=O)C=CC5(C)C4(F)C(O)CC3(C)C2(C(=O)COC(=O)c2cccnc2)O1 (mixture of isomers) [21 A+B]
- Dose required to obtain 50% inhibition of Granuloma growth: 7 γ/animal
- Dose required to obtain 25% inhibition of Body weight Increase: 10 γ/animal
- Dose required to obtain 50% inhibition of Thymus weight: 35 γ/animal

Structure (SMILES): CCCCC(=O)OCC(=O)C12OC(CCC)OC1CC1C3CCC4=CC(=O)C=CC4(C)C3(F)C(O)CC12C (mixture of isomers) [22 A+B]
- Dose required to obtain 50% inhibition of Granuloma growth: 10 γ/animal
- Dose required to obtain 25% inhibition of Body weight Increase: 30 γ/animal
- Dose required to obtain 50% inhibition of Thymus weight: 50 γ/animal

Structure (SMILES): CCCC1OC2CC3C4CC(F)C5=CC(=O)C=CC5(C)C4(F)C(O)CC3(C)C2(C(=O)COC(=O)c2cc3ccccc3o2)O1 (mixture of isomers) [25 A+B]
- Dose required to obtain 50% inhibition of Granuloma growth: < 3 γ/animal
- Dose required to obtain 25% inhibition of Body weight Increase: 10 γ/animal
- Dose required to obtain 50% inhibition of Thymus weight: 10 γ/animal

Structure (SMILES): CCCC1OC2CC3C4CCC5=CC(=O)C=CC5(C)C4C(O)CC3(C)C2(C(=O)COC(C)=O)O1 (mixture of isomers) [27 A+B]
- Dose required to obtain 50% inhibition of Granuloma growth: < 3 γ/animal
- Dose required to obtain 25% inhibition of Body weight Increase: 40 γ/animal
- Dose required to obtain 50% inhibition of Thymus weight: 60 γ/animal

Structure (SMILES): CC1O[C@@H]2C[C@H]3[C@@H]4CCC5=CC(=O)C=C[C@]5(C)[C@@]4(F)[C@@H](O)C[C@]3(C)[C@]2(C(=O)CO)O1 (single isomer, unassigned) [1 A]
- Dose required to obtain 50% inhibition of Granuloma growth: 270 γ/animal
- Dose required to obtain 25% inhibition of Body weight Increase: 60 γ/animal
- Dose required to obtain 50% inhibition of Thymus weight: 115 γ/animal

Structure (SMILES): CC1O[C@@H]2C[C@H]3[C@@H]4CCC5=CC(=O)C=C[C@]5(C)[C@@]4(F)[C@@H](O)C[C@]3(C)[C@]2(C(=O)CO)O1 (single isomer, unassigned) [1 B]
- Dose required to obtain 50% inhibition of Granuloma growth: 30 γ/animal
- Dose required to obtain 25% inhibition of Body weight Increase: 30 γ/animal
- Dose required to obtain 50% inhibition of Thymus weight: 50 γ/animal

Structure (SMILES): CCC1O[C@@H]2C[C@H]3[C@@H]4CCC5=CC(=O)C=C[C@]5(C)[C@@]4(F)[C@@H](O)C[C@]3(C)[C@]2(C(=O)CO)O1 (single isomer, unassigned) [2 A]
- Dose required to obtain 50% inhibition of Granuloma growth: 25 γ/animal
- Dose required to obtain 25% inhibition of Body weight Increase: 90 γ/animal
- Dose required to obtain 50% inhibition of Thymus weight: 130 γ/animal

Structure (SMILES): CCC1O[C@@H]2C[C@H]3[C@@H]4CCC5=CC(=O)C=C[C@]5(C)[C@@]4(F)[C@@H](O)C[C@]3(C)[C@]2(C(=O)CO)O1 (single isomer, unassigned) [2 B]
- Dose required to obtain 50% inhibition of Granuloma growth: 10 γ/animal
- Dose required to obtain 25% inhibition of Body weight Increase: 100 γ/animal
- Dose required to obtain 50% inhibition of Thymus weight: 60 γ/animal

Structure (SMILES): CCCC1O[C@@H]2C[C@H]3[C@@H]4CCC5=CC(=O)C=C[C@]5(C)[C@@]4(F)[C@@H](O)C[C@]3(C)[C@]2(C(=O)CO)O1 (single isomer, unassigned) [3 A]
- Dose required to obtain 50% inhibition of Granuloma growth: 25 γ/animal
- Dose required to obtain 25% inhibition of Body weight Increase: > 30 γ/animal
- Dose required to obtain 50% inhibition of Thymus weight: > 30 γ/animal

Structure (SMILES): CCCC1O[C@@H]2C[C@H]3[C@@H]4CCC5=CC(=O)C=C[C@]5(C)[C@@]4(F)[C@@H](O)C[C@]3(C)[C@]2(C(=O)CO)O1 (single isomer, unassigned) [3 B]
- Dose required to obtain 50% inhibition of Granuloma growth: 3 γ/animal
- Dose required to obtain 25% inhibition of Body weight Increase: 100 γ/animal
- Dose required to obtain 50% inhibition of Thymus weight: 17 γ/animal

Structure (SMILES): CCCCC1O[C@@H]2C[C@H]3[C@@H]4CCC5=CC(=O)C=C[C@]5(C)[C@@]4(F)[C@@H](O)C[C@]3(C)[C@]2(C(=O)CO)O1 (single isomer, unassigned) [4 A]
- Dose required to obtain 50% inhibition of Granuloma growth: < 3 γ/animal
- Dose required to obtain 25% inhibition of Body weight Increase: 170 γ/animal
- Dose required to obtain 50% inhibition of Thymus weight: 100 γ/animal

Structure (SMILES): CCCCC1O[C@@H]2C[C@H]3[C@@H]4CCC5=CC(=O)C=C[C@]5(C)[C@@]4(F)[C@@H](O)C[C@]3(C)[C@]2(C(=O)CO)O1 (single isomer, unassigned) [4 B]
- Dose required to obtain 50% inhibition of Granuloma growth: < 3 γ/animal
- Dose required to obtain 25% inhibition of Body weight Increase: 100 γ/animal
- Dose required to obtain 50% inhibition of Thymus weight: 50 γ/animal

Structure (SMILES): CCCCCC1O[C@@H]2C[C@H]3[C@@H]4CCC5=CC(=O)C=C[C@]5(C)[C@@]4(F)[C@@H](O)C[C@]3(C)[C@]2(C(=O)CO)O1 (single isomer, unassigned) [5 A]
- Dose required to obtain 50% inhibition of Granuloma growth: 30 γ/animal
- Dose required to obtain 25% inhibition of Body weight Increase: > 270 γ/animal
- Dose required to obtain 50% inhibition of Thymus weight: 90 γ/animal

Structure (SMILES): CCCCCC1O[C@@H]2C[C@H]3[C@@H]4CCC5=CC(=O)C=C[C@]5(C)[C@@]4(F)[C@@H](O)C[C@]3(C)[C@]2(C(=O)CO)O1 (single isomer, unassigned) [5 B]
- Dose required to obtain 50% inhibition of Granuloma growth: 10 γ/animal
- Dose required to obtain 25% inhibition of Body weight Increase: > 270 γ/animal
- Dose required to obtain 50% inhibition of Thymus weight: 90 γ/animal

Structure (SMILES): CC1O[C@@H]2C[C@H]3[C@@H]4C[C@H](F)C5=CC(=O)C=C[C@]5(C)[C@@]4(F)[C@@H](O)C[C@]3(C)[C@]2(C(=O)CO)O1 (single isomer, unassigned) [7 A]
- Dose required to obtain 50% inhibition of Granuloma growth: 15 γ/animal
- Dose required to obtain 25% inhibition of Body weight Increase: 20 γ/animal
- Dose required to obtain 50% inhibition of Thymus weight: 12 γ/animal

Structure (SMILES): CC1O[C@@H]2C[C@H]3[C@@H]4C[C@H](F)C5=CC(=O)C=C[C@]5(C)[C@@]4(F)[C@@H](O)C[C@]3(C)[C@]2(C(=O)CO)O1 (single isomer, unassigned) [7 B]
- Dose required to obtain 50% inhibition of Granuloma growth: 10 γ/animal
- Dose required to obtain 25% inhibition of Body weight Increase: 15 γ/animal
- Dose required to obtain 50% inhibition of Thymus weight: 6 γ/animal

Structure (SMILES): CCCC1O[C@@H]2C[C@H]3[C@@H]4C[C@H](F)C5=CC(=O)C=C[C@]5(C)[C@@]4(F)[C@@H](O)C[C@]3(C)[C@]2(C(=O)CO)O1 (single isomer, unassigned) [8 A]
- Dose required to obtain 50% inhibition of Granuloma growth: 6 γ/animal
- Dose required to obtain 25% inhibition of Body weight Increase: 50 γ/animal
- Dose required to obtain 50% inhibition of Thymus weight: 13 γ/animal

Structure (SMILES): CCCC1O[C@@H]2C[C@H]3[C@@H]4C[C@H](F)C5=CC(=O)C=C[C@]5(C)[C@@]4(F)[C@@H](O)C[C@]3(C)[C@]2(C(=O)CO)O1 (single isomer, unassigned) [8 B]
- Dose required to obtain 50% inhibition of Granuloma growth: 4 γ/animal
- Dose required to obtain 25% inhibition of Body weight Increase: 50 γ/animal
- Dose required to obtain 50% inhibition of Thymus weight: 10 γ/animal
